According to PubChem BioAssay AID180 (DTP/NCI, 2004):
“And” between values parts separate entries of the source, which are not always exact repeats. Equal entries are not always repeated.

Tested on: BDF1 mice, Adenocarcinoma 755 s.c., tumor weight T/C
Test: NCI In Vivo Anticancer Drug Screen. Data for tumor model Adenocarcinoma 755 (subcutaneous) in B6D2F1 (BDF1) mice
Details: endpoint: mean tumor weight, higher = larger tumour
Summary of the method: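 In vivo antitumor screen on a transplantable tumor line. Result equals the measure in compound-treated animals divided by the same measure in vehicle controls.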

S=c1nc[nH]c2nc[nH]c12
T/C (dose: 0.01 mg/kg/injection, schedule: Q01DX011 (ip), vehicle: carboxymethylcellulose (CMC)): 161 % of control
T/C (dose: 0.4 mg/kg/injection, schedule: Q01DX011 (ip), vehicle: carboxymethylcellulose (CMC)): 110 % of control
T/C (dose: 0.5 mg/kg/injection, schedule: Q01DX011 (ip), vehicle: saline): 13 % of control
T/C (dose: 0.69 mg/kg/injection, schedule: Q01DX011 (ip), vehicle: carboxymethylcellulose (CMC)): 9 % of control
T/C (dose: 0.75 mg/kg/injection, schedule: Q01DX011 (ip), vehicle: carboxymethylcellulose (CMC)): 4 % of control
T/C (dose: 0.87 mg/kg/injection, schedule: Q01DX011 (ip), vehicle: saline): 21 % of control
T/C (dose: 0.9 mg/kg/injection, schedule: Q01DX011 (ip), vehicle: carboxymethylcellulose (CMC)): 31 % of control
T/C (dose: 1.0 mg/kg/injection, schedule: Q01DX007 (ip), vehicle: carboxymethylcellulose (CMC)): 23 % of control
T/C (dose: 1.0 mg/kg/injection, schedule: Q01DX011 (ip), vehicle: saline): 2 % of control and 16 % of control and 27 % of control
T/C (dose: 1.07 mg/kg/injection, schedule: Q01DX011 (ip), vehicle: carboxymethylcellulose (CMC)): 32 % of control
T/C (dose: 1.25 mg/kg/injection, schedule: Q01DX011 (ip), vehicle: carboxymethylcellulose (CMC)): 3 % of control and 11 % of control
T/C (dose: 1.38 mg/kg/injection, schedule: Q01DX011 (ip), vehicle: carboxymethylcellulose (CMC)): 4 % of control
T/C (dose: 1.5 mg/kg/injection, schedule: Q01DX011 (ip), vehicle: alkali diluted with saline): 8 % of control
T/C (dose: 1.5 mg/kg/injection, schedule: Q01DX011 (ip), vehicle: saline): 3 % of control and 7 % of control
T/C (dose: 1.75 mg/kg/injection, schedule: Q01DX011 (ip), vehicle: saline): 13 % of control
T/C (dose: 1.75 mg/kg/injection, schedule: Q01DX011 (oral), vehicle: saline): 22 % of control
T/C (dose: 1.8 mg/kg/injection, schedule: Q01DX011 (ip), vehicle: carboxymethylcellulose (CMC)): 4 % of control and 15 % of control
T/C (dose: 2.0 mg/kg/injection, schedule: Q01DX007 (ip), vehicle: carboxymethylcellulose (CMC)): 2 % of control and 9 % of control
T/C (dose: 2.0 mg/kg/injection, schedule: Q01DX011 (ip), vehicle: alkali diluted with saline): 2 % of control
T/C (dose: 2.14 mg/kg/injection, schedule: Q01DX011 (ip), vehicle: carboxymethylcellulose (CMC)): 9 % of control
T/C (dose: 2.5 mg/kg/injection, schedule: Q01DX011 (oral), vehicle: alkali diluted with saline): 4 % of control
T/C (dose: 2.67 mg/kg/injection, schedule: Q01DX011 (ip), vehicle: carboxymethylcellulose (CMC)): 20 % of control
T/C (dose: 2.75 mg/kg/injection, schedule: Q01DX011 (ip), vehicle: carboxymethylcellulose (CMC)): 3 % of control
T/C (dose: 3.0 mg/kg/injection, schedule: Q01DX011 (ip), vehicle: carboxymethylcellulose (CMC)): 1 % of control and 2 % of control and 6 % of control
T/C (dose: 3.0 mg/kg/injection, schedule: Q01DX011 (ip), vehicle: saline): 1 % of control
T/C (dose: 3.5 mg/kg/injection, schedule: Q01DX011 (ip), vehicle: saline): 4 % of control
T/C (dose: 3.5 mg/kg/injection, schedule: Q01DX011 (oral), vehicle: saline): 8 % of control
T/C (dose: 4.0 mg/kg/injection, schedule: Q01DX011 (ip), vehicle: carboxymethylcellulose (CMC)): 7 % of control
T/C (dose: 4.0 mg/kg/injection, schedule: Q01DX011 (ip), vehicle: saline): 5 % of control
T/C (dose: 4.28 mg/kg/injection, schedule: Q01DX011 (ip), vehicle: carboxymethylcellulose (CMC)): 4 % of control and 9 % of control
T/C (dose: 5.0 mg/kg/injection, schedule: Q01DX007 (ip), vehicle: carboxymethylcellulose (CMC)): 8 % of control
T/C (dose: 5.0 mg/kg/injection, schedule: Q01DX011 (ip), vehicle: alkali diluted with saline): 4 % of control
T/C (dose: 5.35 mg/kg/injection, schedule: Q01DX011 (ip), vehicle: carboxymethylcellulose (CMC)): 7 % of control and 17 % of control
T/C (dose: 5.5 mg/kg/injection, schedule: Q01DX011 (ip), vehicle: carboxymethylcellulose (CMC)): 4 % of control and 6 % of control
T/C (dose: 6.0 mg/kg/injection, schedule: Q01DX011 (ip), vehicle: alkali diluted with saline): 4 % of control
T/C (dose: 6.0 mg/kg/injection, schedule: Q01DX011 (ip), vehicle: saline): 1 % of control and 5 % of control
T/C (dose: 7.0 mg/kg/injection, schedule: Q01DX011 (oral), vehicle: saline): 10 % of control
T/C (dose: 7.13 mg/kg/injection, schedule: Q01DX011 (ip), vehicle: carboxymethylcellulose (CMC)): 8 % of control
T/C (dose: 10.0 mg/kg/injection, schedule: Q01DX011 (ip), vehicle: alkali diluted with saline): 1 % of control and 9 % of control
T/C (dose: 10.0 mg/kg/injection, schedule: Q01DX011 (oral), vehicle: alkali diluted with saline): 1 % of control
T/C (dose: 10.7 mg/kg/injection, schedule: Q01DX011 (ip), vehicle: carboxymethylcellulose (CMC)): 7 % of control and 8 % of control
T/C (dose: 11.0 mg/kg/injection, schedule: Q01DX011 (ip), vehicle: carboxymethylcellulose (CMC)): 4 % of control
T/C (dose: 12.5 mg/kg/injection, schedule: Q01DX011 (ip), vehicle: carboxymethylcellulose (CMC)): 1 % of control
T/C (dose: 15.0 mg/kg/injection, schedule: Q01DX011 (ip), vehicle: carboxymethylcellulose (CMC)): 4 % of control
T/C (dose: 15.0 mg/kg/injection, schedule: Q01DX011 (ip), vehicle: saline): 1 % of control and 4 % of control
T/C (dose: 20.0 mg/kg/injection, schedule: Q01DX011 (ip), vehicle: alkali diluted with saline): 1 % of control and 4 % of control
T/C (dose: 21.4 mg/kg/injection, schedule: Q01DX011 (ip), vehicle: carboxymethylcellulose (CMC)): 6 % of control
T/C (dose: 22.0 mg/kg/injection, schedule: Q01DX011 (ip), vehicle: carboxymethylcellulose (CMC)): 3 % of control
T/C (dose: 25.0 mg/kg/injection, schedule: Q01DX011 (ip), vehicle: alkali diluted with saline): 2 % of control and 11 % of control
T/C (dose: 25.0 mg/kg/injection, schedule: Q01DX011 (ip), vehicle: carboxymethylcellulose (CMC)): 4 % of control
T/C (dose: 25.0 mg/kg/injection, schedule: Q01DX011 (ip), vehicle: saline): 3 % of control
T/C (dose: 30.0 mg/kg/injection, schedule: Q01DX011 (ip), vehicle: carboxymethylcellulose (CMC)): 4 % of control and 6 % of control
T/C (dose: 35.0 mg/kg/injection, schedule: Q01DX011 (ip), vehicle: carboxymethylcellulose (CMC)): 5 % of control
T/C (dose: 40.0 mg/kg/injection, schedule: Q01DX011 (ip), vehicle: alkali diluted with saline): 2 % of control
T/C (dose: 40.0 mg/kg/injection, schedule: Q01DX011 (ip), vehicle: carboxymethylcellulose (CMC)): 5 % of control
T/C (dose: 44.0 mg/kg/injection, schedule: Q01DX007 (ip), vehicle: carboxymethylcellulose (CMC)): 3 % of control
T/C (dose: 44.0 mg/kg/injection, schedule: Q01DX011 (ip), vehicle: alkali diluted with saline): 2 % of control
T/C (dose: 44.0 mg/kg/injection, schedule: Q01DX011 (ip), vehicle: carboxymethylcellulose (CMC)): 3 % of control and 5 % of control
T/C (dose: 50.0 mg/kg/injection, schedule: Q01DX011 (ip), vehicle: alkali diluted with saline): 4 % of control
T/C (dose: 60.0 mg/kg/injection, schedule: Q01DX011 (ip), vehicle: carboxymethylcellulose (CMC)): 4 % of control
T/C (dose: 62.0 mg/kg/injection, schedule: Q01DX011 (ip), vehicle: saline): 2 % of control
T/C (dose: 65.0 mg/kg/injection, schedule: Q01DX011 (ip), vehicle: alkali diluted with saline): 1 % of control
T/C (dose: 80.0 mg/kg/injection, schedule: Q01DX011 (ip), vehicle: alkali diluted with saline): 2 % of control and 4 % of control
T/C (dose: 100.0 mg/kg/injection, schedule: Q01DX011 (ip), vehicle: alkali diluted with saline): 1 % of control
T/C (dose: 100.0 mg/kg/injection, schedule: Q01DX011 (ip), vehicle: saline): 1 % of control
T/C (dose: 320.0 mg/kg/injection, schedule: Q01DX001 (ip), vehicle: alkali diluted with saline): 5 % of control
T/C (dose: 320.0 mg/kg/injection, schedule: Q01DX001 (oral), vehicle: alkali diluted with saline): 19 % of control
T/C (dose: 320.0 mg/kg/injection, schedule: Q07DX002 (ip), vehicle: alkali diluted with saline): 4 % of control
T/C (dose: 480.0 mg/kg/injection, schedule: Q01DX001 (oral), vehicle: alkali diluted with saline): 22 % of control
T/C (dose: 480.0 mg/kg/injection, schedule: Q03DX004 (oral), vehicle: alkali diluted with saline): 1 % of control
T/C (dose: 480.0 mg/kg/injection, schedule: Q07DX002 (oral), vehicle: alkali diluted with saline): 2 % of control
T/C (dose: 640.0 mg/kg/injection, schedule: Q01DX001 (oral), vehicle: alkali diluted with saline): 10 % of control
T/C (dose: 640.0 mg/kg/injection, schedule: Q07DX002 (oral), vehicle: alkali diluted with saline): 2 % of control
T/C (dose: 125.0 micrograms/kg/injection, schedule: Q01DX011 (ip), vehicle: saline): 11 % of control
T/C (dose: 250.0 micrograms/kg/injection, schedule: Q01DX011 (ip), vehicle: saline): 20 % of control
T/C (dose: 500.0 micrograms/kg/injection, schedule: Q01DX011 (ip), vehicle: saline): 9 % of control
T/C (dose: 1000.0 micrograms/kg/injection, schedule: Q01DX011 (ip), vehicle: saline): 3 % of control

NS(=O)(=O)c1ncnc2nc[nH]c12
T/C (dose: 3.1 mg/kg/injection, schedule: Q01DX011 (ip), vehicle: methylcellulose (MC)): 105 % of control
T/C (dose: 6.2 mg/kg/injection, schedule: Q01DX011 (ip), vehicle: methylcellulose (MC)): 78 % of control
T/C (dose: 12.5 mg/kg/injection, schedule: Q01DX011 (ip), vehicle: methylcellulose (MC)): 15 % of control
T/C (dose: 25.0 mg/kg/injection, schedule: Q01DX011 (ip), vehicle: methylcellulose (MC)): 3 % of control and 9 % of control
